Reference: ChEMBL document CHEMBL2040722, “Synthesis and anti-breast cancer activity of new indolylquinone derivatives” (Eur J Med Chem, 2012)
Converted amounts (≈) assume the structure as drawn. The source made the active and inactive calls. The rule behind the calls is not given here.

Experiments:
Assay type in all cases: functional, cell-based
MCF7 [1] = assay: Antiproliferative activity against human MCF7 cells after 48 hrs by CCK-8 assay; conditions: MCF7, 48 h
MDA-MB-231 [2] = assay: Antiproliferative activity against human MDA-MB-231 cells after 48 hrs by CCK-8 assay; conditions: MDA-MB-231, 48 h
MDA-MB-231 [3] = assay: Induction of apoptosis in human MDA-MB-231 cells at 1.25 ug/ml after 24 hrs by annexin V-FITC and PI-based fluorescence assay
MDA-MB-231 [4] = assay: Induction of apoptosis in human MDA-MB-231 cells after 24 hrs by annexin V-FITC and PI-based fluorescence assay
MDA-MB-231 [5] = assay: Induction of apoptosis in human MDA-MB-231 cells at 0.4 ug/ml after 24 hrs by annexin V-FITC and PI-based fluorescence assay
MCF7 [6] = assay: Induction of apoptosis in human MCF7 cells after 24 hrs by annexin V-FITC and PI-based fluorescence assay
MCF7 [7] = assay: Induction of apoptosis in human MCF7 cells assessed as early apoptosis at 0.9 ug/ml after 24 hrs by annexin V-FITC and PI-based fluorescence assay
MCF7 [8] = assay: Induction of apoptosis in human MCF7 cells assessed as late apoptosis at 0.9 ug/ml after 24 hrs by annexin V-FITC and PI-based fluorescence assay
MCF7 [9] = assay: Induction of apoptosis in human MCF7 cells assessed as late apoptosis at 0.3 ug/ml after 24 hrs by annexin V-FITC and PI-based fluorescence assay
MCF7 [10] = assay: Induction of apoptosis in human MCF7 cells assessed as early apoptosis at 0.3 ug/ml after 24 hrs by annexin V-FITC and PI-based fluorescence assay

Row | Compound | IC50 (MCF7 [1]) [µg/mL] | IC50 (MDA-MB-231 [2]) [µg/mL] | other results
1 | Cc1[nH]c2ccccc2c1C1=C(Br)C(=O)C(Br)=C(c2c(C)[nH]c3ccccc23)C1=O | 8.33 (≈ 15.9 µM) | 4.76 (≈ 9.08 µM) | –
2 | COc1ccc2[nH]c(C)c(C3=C(Br)C(=O)C(c4c(-c5ccccc5)[nH]c5ccccc45)=C(Br)C3=O)c2c1 | 2.57 (≈ 4.17 µM) | 5.02 (≈ 8.15 µM) | –
3 | COc1ccc2[nH]c(C)c(C3=C(Cl)C(=O)C(Cl)=C(c4c(-c5ccc(C)cc5)[nH]c5ccccc45)C3=O)c2c1 | 2.31 (≈ 4.27 µM) | 6.04 (≈ 11.2 µM) | –
4 | Cc1ccc(-c2[nH]c3ccccc3c2C2=C(Br)C(=O)C(Br)=C(c3c(C)[nH]c4ccccc34)C2=O)cc1 | 6.85 (≈ 11.4 µM) | 5.89 (≈ 9.81 µM) | –
5 | O=C1C(Cl)=C(Cl)C(=O)C(c2c(-c3ccccc3)[nH]c3ccccc23)=C1Cl | > 25 | 34.9 (≈ 86.8 µM) | –
6 | Cc1ccc(-c2[nH]c3ccccc3c2C2=C(Cl)C(=O)C(c3c(C)[nH]c4ccccc34)=C(Cl)C2=O)cc1 | 2.8 (≈ 5.48 µM) | 4.21 (≈ 8.23 µM) | –
7 | Cc1[nH]c2ccccc2c1C1=C(Br)C(=O)C(Br)=C(c2c(-c3ccccc3)[nH]c3ccccc23)C1=O | 3.02 (≈ 5.15 µM) | 4.33 (≈ 7.39 µM) | –
8 | COc1ccc2[nH]c(C)c(C3=C(Cl)C(=O)C(c4c(-c5ccc(C)cc5)[nH]c5ccccc45)=C(Cl)C3=O)c2c1 | 3.11 (≈ 5.74 µM) | 4.15 (≈ 7.66 µM) | –
9 | COc1ccc2[nH]c(C)c(C3=C(Br)C(=O)C(Br)=C(Br)C3=O)c2c1 | > 25 | > 10 | –
10 | COc1ccc2[nH]c(C)c(C3=C(Br)C(=O)C(c4c(-c5ccc(C)cc5)[nH]c5ccccc45)=C(Br)C3=O)c2c1 | 2.56 (≈ 4.06 µM) | 3.99 (≈ 6.33 µM) | Activity (MDA-MB-231 [3]): Active; Activity (MDA-MB-231 [4]): Dose-dependent effect; Activity (MDA-MB-231 [5]): Active; Activity (MCF7 [6]): Dose-dependent effect
11 | COc1ccc2[nH]c(C)c(C3=C(Br)C(=O)C(Br)=C(c4c(C)[nH]c5ccc(OC)cc45)C3=O)c2c1 | 4.72 (≈ 8.08 µM) | 8.43 (≈ 14.4 µM) | –
12 | Cc1ccc(-c2[nH]c3ccccc3c2C2=C(Br)C(=O)C(Br)=C(Br)C2=O)cc1 | > 25 | 21.6 (≈ 39.2 µM) | –
13 | Cc1[nH]c2ccccc2c1C1=C(Br)C(=O)C(c2c(-c3ccccc3)[nH]c3ccccc23)=C(Br)C1=O | 3.02 (≈ 5.15 µM) | 5.64 (≈ 9.62 µM) | –
14 | Cc1ccc(-c2[nH]c3ccccc3c2C2=C(Br)C(=O)C(c3c(C)[nH]c4ccccc34)=C(Br)C2=O)cc1 | 3.25 (≈ 5.41 µM) | 6.67 (≈ 11.1 µM) | –
15 | Cc1[nH]c2ccccc2c1C1=C(Cl)C(=O)C(Cl)=C(c2c(-c3ccccc3)[nH]c3ccccc23)C1=O | 2.58 (≈ 5.19 µM) | 5.27 (≈ 10.6 µM) | –
16 | COc1ccc2[nH]c(C)c(C3=C(Br)C(=O)C(Br)=C(c4c(-c5ccccc5)[nH]c5ccccc45)C3=O)c2c1 | 3.38 (≈ 5.48 µM) | 7.67 (≈ 12.4 µM) | –
17 | COc1ccc2[nH]c(C)c(C3=C(Br)C(=O)C(c4c(C)[nH]c5ccccc45)=C(Br)C3=O)c2c1 | > 25 | > 10 | –
18 | Cc1ccc(-c2[nH]c3ccccc3c2C2=C(Cl)C(=O)C(Cl)=C(c3c(C)[nH]c4ccccc34)C2=O)cc1 | 2.88 (≈ 5.63 µM) | 5.77 (≈ 11.3 µM) | –
19 | COc1cccc2c1C(=O)c1c(O)c3c(c(O)c1C2=O)C[C@@](O)(C(=O)CO)C[C@@H]3O[C@H]1C[C@H](N)[C@H](O)[C@H](C)O1 [DOXORUBICIN] | – | 0.2 (≈ 0.368 µM) | –
20 | Cc1[nH]c2ccccc2c1C1=C(Br)C(=O)C(c2c(C)[nH]c3ccccc23)=C(Br)C1=O | 7 (≈ 13.4 µM) | 5.55 (≈ 10.6 µM) | –
21 | Cc1[nH]c2ccccc2c1C1=C(Cl)C(=O)C(c2c(-c3ccccc3)[nH]c3ccccc23)=C(Cl)C1=O | 2.29 (≈ 4.6 µM) | 4.46 (≈ 8.97 µM) | Activity (MCF7 [7]): Active; Activity (MCF7 [8]): Active; Activity (MDA-MB-231 [4]): Dose-dependent effect; Activity (MCF7 [9]): Active; Activity (MCF7 [10]): Active; Activity (MCF7 [6]): Dose-dependent effect
